The results in this text go back to ChEMBL document CHEMBL1127938, “The first synthesis of a C-9 carbonyl modified baccatin III derivative and its conversion to novel taxol and taxotere analogues” (1994).

For test [1], the system named is B16. As to the kind of experiment: Compound was tested in vitro inhibition of proliferation against B16 melanoma after a 40h incubation relative to that of taxol (Taxol=1). Type of test: functional, Mus musculus.
Test [2] in a line: In vitro concentration in […] which reduces the protein concentration by 50% in a microtubule assembly assay, relative to taxol (1) and expressed as ED50/ED50 taxol. The format is functional.
For test [3], the system named is B16. As to the kind of experiment: Compound was tested in vitro inhibition of proliferation against B16 melanoma after a 40h incubation. The format is functional, Mus musculus.
The nature of test [4]: In vitro concentration in […] which reduces the protein concentration by 50% in a microtubule assembly assay expressed as ED50/ED50 taxol. Type of test: functional.

As for `CC(=O)O[C@@]12CO[C@@H]1C[C@H](O)[C@@]1(C)c3oc(=O)oc3C3=C(C)[C@@H](OC(=O)[C@H](O)[C@@H](NC(=O)OC(C)(C)C)c4ccccc4)C[C@@](O)([C@@H](OC(=O)c4ccccc4)C12)C3(C)C` (stereo partly specified), the ED50 ratio with B16 [1] was found to be 16.4; in test [2] it was 0.5.

For the molecule `CC(=O)O[C@H]1C(=O)[C@@]2(C)[C@H]([C@H](OC(=O)c3ccccc3)[C@]3(O)C[C@H](OC(=O)[C@H](O)[C@@H](NC(=O)c4ccccc4)c4ccccc4)C(C)=C1C3(C)C)[C@]1(OC(C)=O)CO[C@@H]1C[C@@H]2O` [PACLITAXEL], the ED50 ratio (in the test with B16 [3]; in test [4]) was 1 throughout.

Regarding `CC(=O)O[C@@]12CO[C@@H]1C[C@H](O)[C@@]1(C)c3oc(=O)oc3C3=C(C)[C@@H](OC(=O)[C@H](O)[C@@H](NC(=O)c4ccccc4)c4ccccc4)C[C@@](O)([C@@H](OC(=O)c4ccccc4)C12)C3(C)C` (stereo partly specified), the ED50 ratio is 34.5 with B16 [1] and 2.4 in test [2].
